Reference: US11059842B2, “Monosaccharide amine and 3-nitro-2-phenyl-2H-chromene based inhibitors of glucose kinases” (UNIVERSITY OF SOUTH CAROLINA, priority 2019, dated 2021)
Where “and” joins values, the source holds several entries; their conditions need not be identical. Identical values can stand only once.

Legend:
T. brucei = T. brucei in vitro screen; format: cell-based; details: Trypanosoma brucei; average; concentrations up to 10 μM, N=3
Method: Compounds 19-31 were screened against T. brucei. The single dose in vitro study included administration of the compounds in increasing concentrations up to 10 μM (N=3 for each compound concentration value). Media and T. bricei+0.5% SDS were used as control.

[1] = tested on: glucose-6-phosphate dehydrogenase (G6PDH); test: G6PDH confirmatory assay (coupling enzyme counter-screen); format: biochemical; details: 20 μM compound; quadruplicate
Method: The 16 compounds showing substantial inhibition against TcGlcK at compound concentrations of 20 μM were then examined in a confirmatory assay in which the amino sugar analogues were at a concentration of 20 μM and were tested against the assay's only coupling enzyme, G6PDH, to verify enzyme activity; the assay was performed in quadruplicate. […] These confirmed hits included representatives from all three monosaccharide scaffolds tested (i.e., D-GlcN, D-ManN, and D-GalN).

[2] = biological target: Homo sapiens hexokinase IV (HsHxKIV) (Homo sapiens (Human), UniProt P35557); test: HsHxKIV enzyme-inhibition screening assay (Example 1); format: biochemical; details: 20 μM compound; N = 1
Homo sapiens hexokinase IV (HsHxKIV), sequence (P35557 whole entry): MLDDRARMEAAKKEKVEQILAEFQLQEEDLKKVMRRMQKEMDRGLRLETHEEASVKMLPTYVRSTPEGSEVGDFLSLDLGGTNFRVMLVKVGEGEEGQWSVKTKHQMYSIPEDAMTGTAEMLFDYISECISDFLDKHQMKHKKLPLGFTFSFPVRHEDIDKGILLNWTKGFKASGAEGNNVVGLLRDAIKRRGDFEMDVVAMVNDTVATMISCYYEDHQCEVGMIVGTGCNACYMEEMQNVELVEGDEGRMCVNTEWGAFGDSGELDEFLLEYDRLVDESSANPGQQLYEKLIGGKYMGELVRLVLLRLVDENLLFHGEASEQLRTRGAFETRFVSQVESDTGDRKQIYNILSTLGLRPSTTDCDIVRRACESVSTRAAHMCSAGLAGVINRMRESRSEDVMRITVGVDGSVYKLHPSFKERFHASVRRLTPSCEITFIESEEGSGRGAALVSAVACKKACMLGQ
Method: (§1) D-Glucose was also tested as a control with alternative substrates. The protein expression work for TcGlcK and HsHxKIV were each made possible through the E. coli strain BL21(DE3) system. Purification of each enzyme was performed through cobalt-NTA chromatography followed by size-exclusion chromatography; assessment of purity was performed by SDS-PAGE. In enzymatic assays, a time-optimum (TOPT) was determined to be 120 seconds for TcGlcK and 600 seconds for HsHxKIV; all assays were run at room temperature. A general reaction scheme included a first reaction in which the monosaccharide, ATP, and Mg^2+ react with the enzyme, e.g., TcGlcK, forming a hexose-phosphate and ADP. In a second reaction, hexose-phosphate with the assistance of glucose-6-phosphate dehydrogenase (G6PDH) and NADP^+ was converted to the lactone form of the hexose-phosphate and NADPH. Fluorescence of NADPH was monitored using a fluorescence microplate reader with […] wavelengths of 340 nm and 485 nm, respectively.
(§2) FIG. 4 and FIG. 5 present typical Michaelis-Menten enzyme kinetic plots for D-glucose. As shown, the NADP^+ to NADPH turnover rate is a function of [D-glucose] & [ATP] for TcGlcK (FIG. 4) and HsHxKIV (FIG. 5) absent inhibition. Michaelis-Menten constant (KM) values, which were used as the set final assay concentrations of substrates D-glucose and ATP for the primary screens, were determined for both TcGlcK and HsHxKIV in triplicate runs. The KM values for TcGlcK with respect to D-glucose and ATP were 0.40 mM and 0.34 mM, respectively. The KM values for HsHxKIV with respect to D-glucose and ATP were 43 mM and 0.20 mM, respectively.

[3] = biological target: Trypanosoma cruzi glucokinase (TcGlcK) (Trypanosoma cruzi (strain CL Brener), UniProt Q4E4E1); format: biochemical; details: percentage of inhibition at 20 μM of the compound; N = 1
Trypanosoma cruzi glucokinase (TcGlcK), sequence (Q4E4E1 1-376): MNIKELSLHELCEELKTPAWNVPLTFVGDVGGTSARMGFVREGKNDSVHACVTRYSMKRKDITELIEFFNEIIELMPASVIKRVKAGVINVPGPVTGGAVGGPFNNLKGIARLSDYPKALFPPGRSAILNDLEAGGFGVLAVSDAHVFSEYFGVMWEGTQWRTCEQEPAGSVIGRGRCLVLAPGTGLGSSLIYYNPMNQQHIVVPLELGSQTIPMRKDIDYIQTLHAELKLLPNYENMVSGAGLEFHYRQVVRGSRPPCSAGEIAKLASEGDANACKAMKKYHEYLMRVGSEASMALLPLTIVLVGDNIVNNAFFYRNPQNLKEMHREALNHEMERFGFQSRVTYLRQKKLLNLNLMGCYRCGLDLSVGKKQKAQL
Method: as §1, with “In enzymatic assays, a time-optimum (TOPT) was determined to be 120 seconds for TcGlcK and 600 seconds for HsHxKIV; all assays were run at room temperature.” left out
Michaelis-Menten constant (KM) values, which were used as the set final assay concentrations of substrates D-glucose and ATP for the primary screens, were determined for both TcGlcK and HsHxKIV in triplicate runs. […]
The cutoff percentage was calculated by using normalized percent inhibition that took into consideration the positive and negative controls of the fluorescence readout from a fluorescence microplate reader. In addition, an unconfirmed hit was selected if the activity measurement was three standard deviations away from the mean of the positive controls.

[4] = tested on: T. cruzi (Tulahuen strain) infective form (trypomastigote and amastigote life stages) co-cultured in NIH-3T3 fibroblasts; test: T. cruzi infective form growth inhibition in NIH-3T3 fibroblasts; format: cell-based, Trypanosoma cruzi; details: Tulahuen strain infective form in NIH-3T3 fibroblasts; N = 3 (Amphotericin B control: 6 replicates)
Method: The curve and the IC50 were calculated from measurements determined in triplicate and expressed as percent growth inhibition of the T. cruzi parasite infection of mammalian cells.
Compounds were further screened against the T. cruzi (Tulahuen strain) infective form (trypomastigote and amastigote life stages) co-cultured in NIH-3T3 fibroblasts to establish IC50 values. Assays were performed in triplicate.
The single dose in vitro study included administration of the compounds in 80 μM inhibitor concentrations (N=3). Amphotericin B was used as a control.

HsHxKIV = HsHxKIV (Homo sapiens (Human), UniProt P35557); test: Primary assay screen of HsHxKIV, normalized percent inhibition (Example 2); format: biochemical; details: triplicate
HsHxKIV, sequence (P35557 whole entry): as the sequence (P35557 whole entry) above
Method: (§3) Primary assay screens of TcGlcK, LbGlcK, and HsHxKIV against the 3-nitro-2-phenyl-2H-chromene-based inhibitors compound nos. 19-22 were carried out. Compound 1, Benzoyl glucosamine (BENZ-GlcN or simply “BENZ”) and carboxybenzyl glucosamine (CBZ-GlcN or simply “CBZ”) were both used as controls due to their known inhibition against TcGlcK. LbGlcK was chosen to be tested against these compounds due to its 44% protein sequence similarity to TcGlcK.
(§4) All screens were done in triplicate and were analyzed using normalized percent inhibition (NPI) calculations. NPI calculations rely on positive and negative assay controls within the screen to account for any fluctuations in the fluorescence measurements.
(§5) The NPI for a compound to be considered a “hit” against TcGlcK required a value exceeding 60.5% inhibition in the primary screen. All four compounds ([…]) qualified as hits based off of this parameter. LbGlcK required compounds to be above 12.6% inhibition in its primary screen; all four compounds were also qualified as hits.

TcGlcK [5] = biological target: T1, TcGlcK (Trypanosoma cruzi (strain CL Brener), UniProt Q4E4E1); test: Primary assay screen of TcGlcK, normalized percent inhibition (Example 2); format: biochemical; details: triplicate
T1 sequence (Q4E4E1 1-376): as the sequence (Q4E4E1 1-376) above
Method: as §3, §4, §5

TcGlcK [6] = biological target: T1, TcGlcK; test: TcGlcK Michaelis-Menten kinetics and substrate range; format: biochemical
Method: as §1, §2
All phosphorylated hexoses were shown getting converted into their corresponding products by G6PDH, in abundant quantities through a 30-second time frame. This permitted the standard TcGlcK […] assay, which was timed for […], to be used as an assay to analyze alternative substrates.

Compound | G6PDH Inh20 (%) [1] | HsHxKIV Inh20(%) [2] | TcGlcK Inh20 (%) [3] | IC50 [4] | other results
CCOc1ccc(C2Oc3c(cc(Br)cc3OC)C=C2[N+](=O)[O-])cc1OC (stereo not drawn) [Compound 29, 6-Bromo-2-(4-ethoxy-3-methoxyphenyl)-8-methoxy-3-nitro-2H-chromene] |  |  |  |  | IC50 (T. brucei): 0.743 µM
O=C(N[C@H]1C(O)O[C@H](CO)[C@H](O)[C@@H]1O)c1cccc(Br)c1 (stereo partly drawn) [Compound 14] | 0.0 ± 0.0% | 30% | 31% and 30.8% | 19.9 µM | 
O=C(N[C@H]1C(O)O[C@H](CO)C(O)[C@@H]1O)c1ccoc1 (stereo partly drawn) [Compound 6] | 0.0 ± 0.0% | 41% | 51% | 49.9 ± 2.99 µM | 
O=C(N[C@H]1C(O)O[C@H](CO)[C@@H](O)[C@@H]1O)c1cccc(Br)c1 (stereo partly drawn) [Compound 2] | 0.0 ± 0.0% | 31% | 57% | 66.2 ± 3.83 µM | 
CCOc1ccc(C2Oc3c(Cl)cc(Cl)cc3C=C2[N+](=O)[O-])cc1OCC (stereo not drawn) [Compound 30, 6,8-Dichloro-2-(3,4-diethoxyphenyl)-3-nitro-2H-chromene] |  |  |  |  | IC50 (T. brucei): 0.664 µM
O=C(N[C@H]1C(O)O[C@H](CO)[C@H](O)[C@@H]1O)c1ccccc1 (stereo partly drawn) [Compound 13] | 0.0 ± 0.0% | 38% | 59% | 55.3 ± 11.9 µM | 
O=C(N[C@H]1C(O)O[C@H](CO)[C@H](O)[C@@H]1O)c1ccc(CCl)cc1 (stereo partly drawn) [Compound 15] |  | 8% | 27% | 37.9 ± 4.77 µM | 
O=C(N[C@@H]1C(O)O[C@H](CO)[C@@H](O)[C@@H]1O)c1ccccc1 (stereo partly drawn) [Compound 7] | 0.0 ± 0.0% | 55% | 71% | 43.5 ± 0.68 µM | 
O=C(N[C@@H]1C(O)O[C@H](CO)[C@@H](O)[C@@H]1O)c1cc2ccccc2o1 (stereo partly drawn) [Compound 11] |  | 12% | 10% | 42.5 ± 6.5 µM | 
O=[N+]([O-])C1=Cc2ccccc2O[C@H]1c1ccccc1Cl [Compound 21] |  |  |  |  | NPI (%) HsHxKIV (HsHxKIV): 51.8%; NPI (%) TcGlcK (TcGlcK [5]): 54.7%
O=C[C@H](O)[C@@H](O)[C@@H](O)[C@H](O)CO [D-galactose] |  |  |  |  | TcGlcK activity relative to D-glucose (100%) (TcGlcK [6]; substrate concentration 15 mM): 0.00%; TcGlcK activity relative to D-glucose (100%) (TcGlcK [6]; substrate concentration 50 mM): 0.00%
COc1ccc(C2Oc3c(cc(Br)cc3OC)C=C2[N+](=O)[O-])cc1OC (stereo not drawn) [Compound 25, 6-Bromo-2-(3,4-dimethoxyphenyl)-8-methoxy-3-nitro-2H-chromene] |  |  |  |  | IC50 (T. brucei): 0.515 µM
CCOc1ccc(C2Oc3c(Br)cc(Br)cc3C=C2[N+](=O)[O-])cc1OC (stereo not drawn) [Compound 28, 6,8-Dibromo-2-(4-ethoxy-3-methoxyphenyl)-3-nitro-2H-chromene] |  |  |  |  | IC50 (T. brucei): 0.356 µM
O=C(N[C@@H]1C(O)O[C@H](CO)[C@@H](O)[C@@H]1O)c1ccoc1 (stereo partly drawn) [Compound 12] | 0.0 ± 0.0% | 32% | 58% | 67.5 ± 1.75 µM | 
C[C@@H]1[C@H](O)[C@@H](C)/C=C/C=C/C=C/C=C/C=C/C=C/C=C/[C@H](O[C@@H]2O[C@H](C)[C@@H](O)[C@H](N)[C@@H]2O)C[C@@H]2O[C@](O)(C[C@@H](O)C[C@@H](O)[C@H](O)CC[C@@H](O)C[C@@H](O)CC(=O)O[C@H]1C)C[C@H](O)[C@H]2C(=O)O [Amphotericin B, reference compound] |  |  |  | 1.08 ± 0.84 µM | 
Cc1ccc(C(=O)N[C@H]2C(O)O[C@H](CO)[C@H](O)[C@@H]2O)o1 (stereo partly drawn) [Compound 16] | 0.0 ± 0.0% | 41% | 30% | 20.2 µM | 
COc1ccc(C2Oc3ccc(Br)cc3C=C2[N+](=O)[O-])cc1OC (stereo not drawn) [Compound 26, 6-Bromo-2-(3,4-dimethoxyphenyl)-3-nitro-2H-chromene] |  |  |  |  | IC50 (T. brucei): 0.435 µM
O=C(N[C@H]1C(O)O[C@H](CO)[C@@H](O)[C@@H]1O)c1ccc(CCl)cc1 (stereo partly drawn) [Compound 3] | 0.0 ± 0.0% | 35% | 42% | 52.9 ± 2.72 µM | 
O=C(N[C@H]1C(O)O[C@H](CO)[C@H](O)[C@@H]1O)c1cc2ccccc2o1 (stereo partly drawn) [Compound 17] | 0.0 ± 0.0% | 37% | 39% | 66.6 ± 13.7 µM | 
O=C(N[C@@H]1C(O)O[C@H](CO)[C@@H](O)[C@@H]1O)c1ccc(CCl)cc1 (stereo partly drawn) [Compound 9] | 0.0 ± 0.0% | 28% | 33% | 38.4 ± 1.41 µM | 
O=C(CO)[C@@H](O)[C@H](O)[C@H](O)CO [D-fructose] |  |  |  |  | increase of TcGlcK activity from 15 mM to 50 mM substrate (TcGlcK [6]): 2.58 fold; TcGlcK activity relative to D-glucose (100%) (TcGlcK [6]; substrate concentration 15 mM): 18.9%; TcGlcK activity relative to D-glucose (100%) (TcGlcK [6]; substrate concentration 50 mM): 48.8%
O=C(N[C@H]1C(O)O[C@H](CO)[C@H](O)[C@@H]1O)c1ccoc1 (stereo partly drawn) [Compound 18] | 0.0 ± 0.0% | 47% | 56% | 36.4 ± 1.47 µM | 
O=C[C@@H](O)[C@@H](O)[C@H](O)[C@H](O)CO [D-mannose] |  |  |  |  | increase of TcGlcK activity from 15 mM to 50 mM substrate (TcGlcK [6]): 2.69 fold; TcGlcK activity relative to D-glucose (100%) (TcGlcK [6]; substrate concentration 15 mM): 6.18%; TcGlcK activity relative to D-glucose (100%) (TcGlcK [6]; substrate concentration 50 mM): 16.6%
CCOc1ccc(C2Oc3ccc(Br)cc3C=C2[N+](=O)[O-])cc1OC (stereo not drawn) [Compound 23, 6-Bromo-2-(4-ethoxy-3-methoxyphenyl)-3-nitro-2H-chromene] |  |  |  |  | IC50 (T. brucei): 0.614 µM
O=C(N[C@@H]1C(O)O[C@H](CO)[C@@H](O)[C@@H]1O)c1cccc(Br)c1 (stereo partly drawn) [Compound 8] | 0.0 ± 0.0% | 27% | 35% | 38.4 ± 1.4 µM | 
COc1ccc(C2Oc3c(Br)cc(Br)cc3C=C2[N+](=O)[O-])cc1OC (stereo not drawn) [Compound 27, 6,8-Dibromo-2-(3,4-dimethoxyphenyl)-3-nitro-2H-chromene] |  |  |  |  | IC50 (T. brucei): 0.416 µM
